Literature values, collected in patent publication US20090082295A1, “COMBINATIONS AND METHODS OF USING AN IMMUNOMODULATORY OLIGODEOXYNUCLEOTIDE” (PFIZER INC., priority 2005, published 2009).
Structures can show the parent of a compound that is named as a salt.

Key:
mitotic microtubules = conditions: intact tectal plates from mouse embryos
axonal microtubules = conditions: intact tectal plates from mouse embryos
mammalian cells = conditions: high concentrations
[1] = test system: Lewis lung murine xenograft
[2] = test system: CALU-6 human lung xenograft
[3] = test system: LX-1 human lung xenograft
[4] = combination with cisplatin
[5] = test system: topoisomerase I purified from human and rodent tumor cell lines; conditions: purified enzyme
[6] = test system: rat mammary carcinoma induced by dimethylbenzanthracene (DMBA)
[7] = test system: xenotransplant models of colon cancer; conditions: nude (athymic) mice

CCC1=C[C@@H]2CN(C1)Cc1c([nH]c3ccccc13)[C@@](C(=O)OC)(c1cc3c(cc1OC)N(C)[C@H]1[C@@](O)(C(=O)OC)[C@H](OC(C)=O)[C@]4(CC)C=CCN5CC[C@]31[C@@H]54)C2 (relative stereo) [vinorelbine, 3′,4′-didehydro-4′-deoxy-C′-norvincaleukoblastine[R—(R*,R*)-2,3-dihydroxybutanedioate (1:2) (salt)]]
concentration inhibiting mitotic microtubule formation, inducing a blockade of cells at metaphase (mitotic microtubules): 2 µM | concentration producing depolymerization of axonal microtubules (axonal microtubules): 40 µM

COc1cc([C@@H]2c3cc4c(cc3[C@@H](O[C@@H]3O[C@@H]5CO[C@@H](C)O[C@H]5[C@H](O)[C@H]3O)[C@H]3COC(=O)[C@H]23)OCO4)cc(OC)c1O [Etoposide, 4′-Demethylepipodophyllotoxin 9-[4,6-0-(R)-ethylidene-β-D-glucopyranoside]]
concentration at which lysis of cells entering mitosis is observed (mammalian cells): ≥ 10 µg/mL

Nc1ccn([C@@H]2O[C@H](CO)[C@@H](O)C2(F)F)c(=O)n1 [Gemcitabine, 2′-deoxy-2′,2′-difluorocytidine monohydrochloride (β-isomer)]
interaction with cisplatin [1]: synergistic | activity in combination with cisplatin [2]: showed activity | activity in combination with cisplatin [3]: showed activity | activity with cisplatin in vitro [4]: dose-dependent synergistic activity | activity in combination with cisplatin (NCI-H460 xenograft): minimal activity | activity in combination with cisplatin (NCI-H520 xenograft): minimal activity

CCc1c2c(nc3ccc(O)cc13)-c1cc3c(c(=O)n1C2)COC(=O)[C@]3(O)CC [SN-38]
potency as inhibitor of topoisomerase I relative to irinotecan [5]: approximately 1000 times

CC/C(=C(\c1ccccc1)c1ccc(OCCN(C)C)cc1)c1ccccc1 [Tamoxifen, (Z)2-[4-(1,2-diphenyl-1-butenyl)phenoxy]-N, Ndimethylethanamine 2-hydroxy-1,2,3-propanetricarboxylate (1:1)]
effect on DMBA-induced mammary carcinoma [6]: inhibits the induction of rat mammary carcinoma induced by dimethylbenzanthracene (DMBA) and causes the regression of already established DMBA-induced tumors

CC[C@]1(O)C[C@@H]2CN(CCc3c([nH]c4ccccc34)[C@@](C(=O)OC)(c3cc4c(cc3OC)N(C)[C@H]3[C@@](O)(C(=O)OC)[C@H](OC(C)=O)[C@]5(CC)C=CCN6CC[C@]43[C@@H]65)C2)C1 [vinblastine]
concentration inhibiting mitotic microtubule formation, inducing a blockade of cells at metaphase (mitotic microtubules): 2 µM | concentration producing depolymerization of axonal microtubules (axonal microtubules): 30 µM

CC[C@]1(O)C[C@H]2CN(CCc3c([nH]c4ccccc34)[C@@](C(=O)OC)(c3cc4c(cc3OC)N(C=O)[C@H]3[C@@](O)(C(=O)OC)[C@H](OC(C)=O)[C@]5(CC)C=CCN6CC[C@]43[C@@H]65)C2)C1 [vincristine]
concentration inhibiting mitotic microtubule formation, inducing a blockade of cells at metaphase (mitotic microtubules): 2 µM | concentration producing depolymerization of axonal microtubules (axonal microtubules): 5 µM

bevacizumab: recombinant humanized monoclonal IgG1 antibody that binds human VEGF
effect on microvascular growth and metastatic disease progression [7]: reduction of microvascular growth and inhibition of metastatic disease progression
